The values that follow are results of earlier work, collected in patent US20210369737A1, “PROSTATE FUNCTION SUPPORT FORMULA” (Innovus Pharmaceuticals, Inc., priority 2017, published 2021).

The subject of one data set is prostate tumors. Conditions: TRAMP mice.
Another data set relates to prostate cancer cell. The settings on record: in vitro.
Data set [1] has as its system prostate cancer cells.
For data set [2] the following is noted: in vivo.
A further data set concerns PSA. Conditions: clinical trials.
For data set [3], the system named is prostate cancer cells. The settings on record: in vitro.
Data set [4] deals with human prostate tumor in vivo xenografts.
Another data set addresses T1, androgen receptor (Homo sapiens, UniProt P10275).
T1 sequence (P10275 1-920): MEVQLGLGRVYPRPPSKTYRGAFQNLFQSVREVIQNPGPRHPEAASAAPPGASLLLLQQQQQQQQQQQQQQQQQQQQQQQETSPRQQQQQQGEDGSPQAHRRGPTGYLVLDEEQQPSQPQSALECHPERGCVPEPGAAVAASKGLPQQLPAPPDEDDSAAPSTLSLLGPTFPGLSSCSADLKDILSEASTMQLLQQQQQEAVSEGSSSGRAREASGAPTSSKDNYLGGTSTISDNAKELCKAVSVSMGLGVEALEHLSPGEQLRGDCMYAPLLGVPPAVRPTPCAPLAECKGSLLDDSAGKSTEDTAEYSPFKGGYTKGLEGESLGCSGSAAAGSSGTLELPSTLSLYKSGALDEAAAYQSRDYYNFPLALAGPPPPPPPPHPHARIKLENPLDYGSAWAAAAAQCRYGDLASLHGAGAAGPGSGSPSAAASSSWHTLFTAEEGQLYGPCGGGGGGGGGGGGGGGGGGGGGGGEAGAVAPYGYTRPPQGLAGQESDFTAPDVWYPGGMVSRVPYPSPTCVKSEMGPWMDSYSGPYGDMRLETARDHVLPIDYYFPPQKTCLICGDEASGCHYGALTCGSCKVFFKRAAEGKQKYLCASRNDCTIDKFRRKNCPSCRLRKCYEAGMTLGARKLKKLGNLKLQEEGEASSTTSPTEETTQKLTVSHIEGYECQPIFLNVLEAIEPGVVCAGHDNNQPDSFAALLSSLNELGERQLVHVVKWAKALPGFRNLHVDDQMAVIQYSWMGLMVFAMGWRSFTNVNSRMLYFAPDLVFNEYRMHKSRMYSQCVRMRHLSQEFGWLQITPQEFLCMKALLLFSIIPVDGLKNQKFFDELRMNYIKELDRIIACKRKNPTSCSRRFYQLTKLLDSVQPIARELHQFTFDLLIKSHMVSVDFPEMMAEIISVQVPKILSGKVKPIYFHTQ
The settings on record: in vitro.

Another data set relates to prostate cancer. Conditions: in vitro and in vivo.
For data set [5], the system named is prostate cancer and BPH cells. Conditions: in vitro.

Turning to `CC[C@H](CC[C@@H](C)[C@H]1CC[C@H]2[C@@H]3CC=C4C[C@@H](O)CC[C@]4(C)[C@H]3CC[C@]12C)C(C)C` [Beta-sitosterols, Beta-Sitosterol], in the data set on BPH (clinical), the “levels of DHT” value was “decrease levels of DHT” and the urinary flow result is “significantly improve urinary flow”. Besides, in the data set on BPH (follow-up study, observation), the “maintenance of improvements in follow-up” value was 18 months. In addition, the symptom scores entry in the data set on BPH (versus placebo, after three and six months of treatment) was “significant decrease in symptom scores”.
On to `O=C(O[C@@H]1Cc2c(O)cc(O)cc2O[C@@H]1c1cc(O)c(O)c(O)c1)c1cc(O)c(O)c(O)c1` [EGCG], for which the “tumor size and development of prostate tumors” value in the data set with prostate tumors was “reduces tumor size and delays development of prostate tumors”. In the data set on prostate cancer cell, the androgen antagonism result is “acts as an anti-androgen antagonist”; the “prostate cancer cell proliferation and PSA production” value is “suppresses prostate cancer cell proliferation and production of prostate-specific antigen (PSA)”.
Take `CC(C)=CCC/C(C)=C/C=C/C(C)=C/C=C/C(C)=C/C=C/C=C(C)/C=C/C=C(C)/C=C/C=C(\C)CCC=C(C)C` [Lycopene]: the antitumorigenic effect result with prostate cancer cells [1] (animal studies) was “antitumorigenic effect”. Also, in the data set on prostate cancer cells [1] (in vitro and in vivo), the “antioxidant response, proliferation, apoptosis, metastatic capacity of prostate cells” value was “enhance the antioxidant response of prostate cells, inhibit proliferation, demonstrate chemopreventive effect induce apoptosis and decrease the metastatic capacity of prostate cancer cells”. Moreover, the safety status entry in [2] is “generally recognized as safe (GRAS)”. For the same compound, the PSA levels result in the data set on PSA is recorded as “reduction of PSA levels”.
Turning to `O=c1c(O)c(-c2ccc(O)c(O)c2)oc2cc(O)cc(O)c12` [Quercetin, 2-(3,4-dihydroxyphenyl)-3,5,7-trihydroxy-4H-chromen-4-one], the “symptoms in CP/CPPS” value with CP/CPPS (clinical) is listed as “symptomatic improvement”. Also, the IPSS entry with CP/CPPS (randomized, double-blind, placebo controlled clinical trial) is “decrease in IPSS”. Besides, in the data set on prostate cancer cells [3], the “apoptosis and caspase activation” value is “promoted prostate cancer cells apoptosis and caspase activation”; the “prostate cancer cell proliferation” value was “inhibits prostate cancer cell proliferation”. Also, in data set [4] (in vivo, in combination with finasteride), the “prostate weight and anti-tumor activity” value is “effective in vivo in combination with finasteride to reduce prostate weight and anti-tumor activity”. Besides, in data set [4] (mice), the “effect on human prostate tumor xenografts” value was “has an effect on human prostate tumor in vivo xenografts”.
Turning to `[Se]` [Selenium], the “levels of p53” value at androgen receptor is reported as “increase levels of p53”. For the same compound, at androgen receptor (prostate cancer cells), the “activity of the androgen receptor” value is given as “decrease the activity of the androgen receptor”. In addition, in the data set on prostate cancer, the “prostate cancer risk, tumor progression, apoptosis” value was “reduce risk of prostate cancer, suppress tumor progression and cell apoptosis”.
Take `[Zn]` [Zinc]: in [5], the “apoptosis and antiproliferative effects” value was “induces apoptosis and antiproliferative effects”.
On to Vitamin E, for which the “prostate cancer risk, tumor progression, apoptosis” value in the data set with prostate cancer was “reduce risk of prostate cancer, suppress tumor progression and cell apoptosis”.
